# Measurements: article PMC12368482, “Antiprotozoal Activity of Highly Substituted Pyrazole and Pyrimidine Derivatives” (Chemmedchem, 2025)
# Read-outs that look alike come from different tables or passages of the source.
# Experiments:
# Type in all cases: cell-based
# [1] = MTT cytotoxicity assay on fibroblasts; details: human, GM-6114 embryonic human fibroblasts, compounds tested at 10 μM for 48 h, percentage of control, read-out: Cell viability GM‐6114
# Procedure: MTT assays: MTT assays were performed using GM‐6114 (embryonic human fibroblast, ATCC, Manassas, VA). The cells were grown in DMEM with 10% FBS, 2 mM glutamine, and 1% penstrep and incubated at 37 °C in 5% CO2 in a humidified environment. All reagents were purchased from EuroClone (Milan, Italy). Briefly, the cell line was plated in 96 well plates at an adequate number to reach 80%–90% of confluence at the end of the assay. 16 h after cell plating, compounds were dissolved in DMSO to give a 10 mM stock solution, diluted in growth medium, and added at a final working concentration of 10 μM. After 48 h of incubation, 30 μL of 3‐(4,5‐dimethyl‐2‐thiazolyl)‐2,5‐diphenyl‐2H‐tetrazolium bromide (MTT) at a concentration of 2 mg mL^−1 in PBS were added in each well. Then, after further 4 h of incubation, the supernatant was removed, and 100 μL/well of DMSO were used to dissolve the formazan precipitate that could be found in vital cells. After 20 min, the results were read at 570 nm by means of a plate reader. The results were expressed as percentage of the control samples in which the cells were incubated with the same amount of DMSO but without compounds. The assays were repeated three times. In each set, every single compound was tested six times. Variation among duplicates was less than 10%.
# P. falciparum D10 = assay: Antiplasmodial susceptibility assay (pLDH), CQ-sensitive D10 strain; details: Plasmodium falciparum, read-out: IC50 P. falciparum D10
# Procedure: (§1) Continuous in vitro Plasmodium falciparum cultures were carried out according to Trager and Jensen with slight modifications.^[ [38] ^] The CQ‐susceptible strain D10 and the CQ‐resistant strain W2 were maintained at 5% hematocrit (human type A‐positive red blood cells) in RPMI 1640 (EuroClone, Celbio) medium with the addition of 1% AlbuMax (Invitrogen, Milan, Italy), 0.01% hypoxanthine, 20 mM HEPES (at pH 7.4), and 2 mM glutamine. All the cultures were maintained at 37 °C in a low‐oxygen atmosphere consisting of 1% O2, 5% CO2, and 94% N2. Compounds were dissolved in DMSO to a stock concentration of 10 mg/ml and then diluted with complete medium to achieve the desired concentrations (final DMSO concentration <1%, which is nontoxic to the parasite). Derivatives were placed in 96‐well flat‐bottomed microplates in duplicate, and seven 1:2 serial dilutions were made directly in the plate in a volume of 100 μL. Asynchronous cultures with parasitemia of 1%–1.5% (assessed through Giemsa stained blood smears) and 1% final hematocrit were aliquoted into the plates and incubated for 72 h at 37 °C in a final volume of 200 μL/well. Uninfected erythrocytes at 2% hematocrit were used as blank. The antimalarial CQ was tested against the parasite strains as a positive control of inhibition. Parasite growth was determined spectrophotometrically (OD650) by measuring the activity of the parasite lactate dehydrogenase (pLDH), according to a modified version of the method of Makler in control and drug‐treated cultures.^[ [39] ^] The antimalarial activity was expressed as 50% inhibitory concentrations (IC50). The IC50 values were extrapolated from nonlinear regression analysis of the concentration–response curve, using the software Gen5 1.10 provided with the Synergy 4 (BioTek) reader. Each IC50 value was the mean of three independent experiments run in duplicates.
# P. falciparum W2 = assay: Antiplasmodial susceptibility assay (pLDH), CQ-resistant W2 strain; details: Plasmodium falciparum, read-out: IC50 P. falciparum W2
# Procedure: as §1
# L. tropica promastigotes = assay: Antileishmanial evaluation (MTT), promastigotes; details: Leishmania tropica, 72 h, NA = not active
# Procedure: (§2) The promastigote stage of L. infantum strain MHOM/TN/80/IPT1 (kindly provided by Dr M. Gramiccia, ISS, Roma) and L. tropica strain (MHOM/IT/2012/ISS3130) were cultured in RPMI 1640 medium (EuroClone) supplemented with 10% heat‐inactivated fetal calf serum (EuroClone), 20 mM Hepes, and 2 mM L‐glutamine at 24 °C. To determine the 50% inhibitory concentration (IC50), the MTT method was used.^[ [40], [41] ^] Compounds were dissolved in DMSO and then diluted with medium to achieve the required concentrations. Drugs were placed in 96 wells round‐bottom microplates and seven serial dilutions made. Amphotericin B was used as reference antiLeishmania drug. Parasites were diluted in complete medium to 5 × 10^6 parasites mL^−1 and 100 μL of the suspension was added to each well. The plates were incubated at 24 °C for 72 h, after the incubation 20 μL of MTT solution (5 mg mL^−1) was added to each well and incubated for additional 3 h. The plates were then centrifuged at 1000 × g for 8 min at room temperature and the supernatants were discarded. The resulting pellets were dissolved in 100 μL of lysing buffer consisting of 20% w/v of a solution of SDS (Sigma), 40% of DMF (Merck) in H2O. The absorbance was measured spectrophotometrically at a test wavelength of 550 nm and a reference wavelength of 650 nm. The results were expressed as IC50 which was the concentration of compound necessary to inhibit parasite growth by 50%; each IC50 value was the mean of separate experiments performed in duplicate.
# [2] = test system: L. infantum promastigotes; assay: Antileishmanial evaluation (MTT), promastigotes; details: Leishmania infantum, 72 h, NA = not active
# Procedure: as §2
# [3] = CQ-sensitive strain D10, 72 h, pLDH readout, mean of three independent experiments in duplicate, NA = not active
# [4] = CQ-resistant strain W2, 72 h, pLDH readout, mean of three independent experiments in duplicate, NA = not active
SMILES,"viability at 48 h, 10 μM [1] [%]",IC50 (P. falciparum D10; [3]) [µM],IC50 (P. falciparum W2; [4]) [µM],IC50 (L. tropica promastigotes) [µM],IC50 [2] [µM],"IC50 (P. falciparum D10; D10, 72 h) [µM]","IC50 (P. falciparum W2; W2, 72 h) [µM]"
"N#Cc1c(O)nc(N)nc1N1CCOCC1 [16b, 2‐amino‐4‐hydroxy‐6‐morpholinopyrimidine‐5‐carbonitrile]",65,,,,,,
"N#Cc1c(-c2ccc(Br)cc2)n[nH]c1Nc1ccccc1 [VIc, reference compound]",67,19.8,19.9,23.2,19.3,,
"CC(C)(C)c1n[nH]c(N2CCC(c3ccccc3)CC2)c1C#N [13c, 3‐(tert‐butyl)‐5‐(4‐phenylpiperidin‐1‐yl)‐1H‐pyrazole‐4‐carbonitrile]",94,14.9,11.1,34.6,30.4,,
"COc1ccc(CCNc2nc(N)nc(O)c2C#N)cc1OC [16a, 2‐amino‐4‐((3,4‐dimethoxyphenethyl)amino)‐6‐hydroxypyrimidine‐5‐carbonitrile]",67,9.24,31.7,,,,
"Nc1n[nH]c(N2CCOCC2)c1S(=O)(=O)c1ccccc1 [15b, 5‐morpholino‐4‐(phenylsulfonyl)‐1H‐pyrazol‐3‐amine]",87,49.6,50.4,,,,
"N#Cc1c(-c2cccc(Br)c2)n[nH]c1Nc1ccccc1 [VIa, reference compound]",78,27.8,21,21.2,17.7,,
"CCCCN(CCCC)CCNc1[nH]nc(-c2ccccc2)c1C#N [14d, 5‐((2‐(dibutylamino)ethyl)amino)‐3‐phenyl‐1H‐pyrazole‐4‐carbonitrile]",71,9.52,9,11.6,7.92,,
"COc1ccc(CCNc2[nH]nc(N)c2S(=O)(=O)c2ccccc2)cc1OC [15a, N ^ 5 ‐(3,4‐dimethoxyphenethyl)‐4‐(phenylsulfonyl)‐1H‐pyrazole‐3,5‐diamine]",70,,,,,,
"N#Cc1c(-c2ccc(Cl)cc2)n[nH]c1Nc1ccccc1 [VIb, reference compound]",70,34.3,32.7,23.2,19.1,,
"CCCCN(CCCC)CCCNc1[nH]nc(-c2ccccc2)c1C#N [14e, 5‐((3‐(dibutylamino)propyl)amino)‐3‐phenyl‐1H‐pyrazole‐4‐carbonitrile]",65,9.79,4.34,8.32,6.17,,
"COc1ccc(CCNc2[nH]nc(C(C)(C)C)c2C#N)cc1OC [13a, 3‐(tert‐butyl)‐5‐((3,4‐dimethoxyphenethyl)amino)‐1H‐pyrazole‐4‐carbonitrile]",82,28.6,25.6,52.2,40.1,,
"N#Cc1c(-c2ccccc2)n[nH]c1N1CCC(c2ccccc2)CC1 [14c, 3‐phenyl‐5‐(4‐phenylpiperidin‐1‐yl)‐1H‐pyrazole‐4‐carbonitrile]",76,31,23.4,21.3,22.4,,
"C[C@@H]1[C@H](O)[C@@H](C)/C=C/C=C/C=C/C=C/C=C/C=C/C=C/[C@H](O[C@@H]2O[C@H](C)[C@@H](O)[C@H](N)[C@@H]2O)C[C@@H]2O[C@](O)(C[C@@H](O)C[C@@H](O)[C@H](O)CC[C@@H](O)C[C@@H](O)CC(=O)O[C@H]1C)C[C@H](O)[C@H]2C(=O)O [AmB, amphotericin B, reference compound]",,,,0.29,0.22,,
"CCN(CC)CCCC(C)Nc1ccnc2cc(Cl)ccc12 (stereo not shown) [CQ, chloroquine, reference compound]",,,,,,0.04,0.45
"N#Cc1c(-c2ccccc2)nc(N)nc1N1CCOCC1 [17b, 2‐amino‐4‐morpholino‐6‐phenylpyrimidine‐5‐carbonitrile]",66,,,,,,
"Nc1n[nH]c(N2CCC(c3ccccc3)CC2)c1S(=O)(=O)c1ccccc1 [15c, 5‐(4‐phenylpiperidin‐1‐yl)‐4‐(phenylsulfonyl)‐1H‐pyrazol‐3‐amine]",102,38,51.8,44,27.4,,
"COc1ccc(CCNc2[nH]nc(-c3ccccc3)c2C#N)cc1OC [14a, 5‐((3,4‐dimethoxyphenethyl)amino)‐3‐phenyl‐1H‐pyrazole‐4‐carbonitrile]",87,35.1,36.5,55.7,40.1,,
"CCCCN(CCCC)CCCNc1nc(N)nc(O)c1C#N [16e, 2‐amino‐4‐((3‐(dibutylamino)propyl)amino)‐6‐hydroxypyrimidine‐5‐carbonitrile]",66,,45,,,,
"CCCCN(CCCC)CCCNc1nc(N)nc(-c2ccccc2)c1C#N [17e, 2‐amino‐4‐((3‐(dibutylamino)propyl)amino)‐6‐phenylpyrimidine‐5‐carbonitrile]",67,16.7,4.18,9.14,7.31,,
"CC(C)(C)c1n[nH]c(N2CCOCC2)c1C#N [13b, 3‐(tert‐butyl)‐5‐morpholino‐1H‐pyrazole‐4‐carbonitrile]",91,,,,,,
"COc1ccc(CCNc2nc(N)nc(-c3ccccc3)c2C#N)cc1OC [17a, 2‐amino‐4‐((3,4‐dimethoxyphenethyl)amino)‐6‐phenylpyrimidine‐5‐carbonitrile]",46,,,,,,
"CCN(CC)CCCC(C)Nc1[nH]nc(-c2ccccc2)c1C#N (stereo not shown) [14f, 5‐((5‐(diethylamino)pentan‐2‐yl)amino)‐3‐phenyl‐1H‐pyrazole‐4‐carbonitrile]",58,43.3,13.4,9.74,11,,
"N#Cc1c(-c2ccccc2)n[nH]c1N1CCOCC1 [14b, 5‐morpholino‐3‐phenyl‐1H‐pyrazole‐4‐carbonitrile]",84,,,,75.9,,
